# Patent publication US10792280B2, “Pharmaceutical composition comprising amodiaquine and anti-diabetes drug as effective ingredient for prevention or treatment of diabetes” (NOVMETAPHARMA CO., LTD., priority 2016, dated 2020)
# Tests used:
# [1] = biological target: T1, PPAR-γ (Homo sapiens, UniProt P37231); test: PPAR-γ activation, GAL4-PPAR-γ-LBD luciferase reporter in BE(2)C cells; type: cell-based; settings: 20 h treatment, up to 50 μM, FIGS. 1A, 1B
# T1 construct: expressed in transfected cells; host or cells: BE(2)C cells
# T1 sequence (P37231 238-503 limits assumed): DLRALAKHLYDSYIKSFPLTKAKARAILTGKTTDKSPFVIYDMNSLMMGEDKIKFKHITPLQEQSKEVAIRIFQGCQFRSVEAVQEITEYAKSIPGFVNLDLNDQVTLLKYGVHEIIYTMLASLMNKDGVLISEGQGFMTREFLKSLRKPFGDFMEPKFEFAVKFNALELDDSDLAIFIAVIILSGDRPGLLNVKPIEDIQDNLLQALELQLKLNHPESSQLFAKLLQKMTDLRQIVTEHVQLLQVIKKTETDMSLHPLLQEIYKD
# Method: (§1) To examine whether amodiaquine acts as a ligand of […] or PPAR-α, three types of vectors were used.
# (§2) The activation of luciferase expression was measured after BE(2)C cells were transformed with a GAL4-PPAR-γ-LBD plasmid or a GAL4-PPAR-α-LBD plasmid, a GAL4-luciferase vector, and a β-galactosidase vector for 6 hours, treated with amodiaquine for 20 hours, and then grown in a 5% CO2 incubator.
# [2] = test system: high fat-induced obesity mice; test: Intraperitoneal insulin tolerance test (IPITT) in high fat-induced obesity mice; type: in vivo, mouse; settings: for blood glucose concentration after 2 hours vs fasting blood glucose (IPITT): HFD with simultaneous administration, 0.5 U/kg insulin i.p., FIG. 7B; for time of lowest blood glucose level after insulin (IPITT): administration after long-term HFD-induced obesity, FIG. 7C
# Excerpt: For measurement of the blood glucose concentration, an intraperitoneal insulin tolerance test (IPITT) was used.
# [3] = biological target: T2, PPAR-α (Homo sapiens, UniProt Q07869); test: PPAR-α activation, GAL4-PPAR-α-LBD luciferase reporter in BE(2)C cells; type: cell-based; settings: 20 h treatment, up to 50 μM, FIGS. 1C, 1D
# T2 construct: expressed in transfected cells; host or cells: BE(2)C cells
# T2 sequence (Q07869 239-466 limits assumed): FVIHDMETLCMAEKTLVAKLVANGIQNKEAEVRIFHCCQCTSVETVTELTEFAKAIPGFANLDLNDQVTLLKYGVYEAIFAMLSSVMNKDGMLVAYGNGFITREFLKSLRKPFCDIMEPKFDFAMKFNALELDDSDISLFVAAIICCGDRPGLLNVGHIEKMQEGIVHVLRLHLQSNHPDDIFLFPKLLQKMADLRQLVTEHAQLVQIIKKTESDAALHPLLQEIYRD
# Method: as §1, §2
# [4] = test system: C2C12 myotube cells; test: Glucose uptake ([3H]2-DOG) in C2C12 myotube cells; type: cell-based, mouse; settings: 10 μM or 30 μM, 24 h; compared with 50 μM rosiglitazone; FIG. 2
# Method: The phosphorylation of insulin receptors occurs due to signal transduction by insulin in muscle, adipose, liver cells, and the like, and accordingly, when various proteins located downstream are phosphorylated, glucose uptake increases, resulting in reduced blood glucose. Thus, a glucose uptake evaluation experiment was carried out to identify whether amodiaquine is effective for diabetes. C2C12 myoblasts, which are muscle cells, were cultured in DMEM containing 10% […]. When the cell density reached about 80% to about 90%, the medium was replaced with fresh 2% horse serum-containing DMEM, and cell differentiation of the C2C12 myoblasts into myotubes was induced to completely differentiate the cells, and then an experiment was carried out. […] Washing was repeated three times every twenty minutes. Subsequently, 1 ml of KRP buffer was injected, a solution (0.2 mM, 0.2 μCi) prepared by dissolving unlabeled 2-DOG and [^3H]2-DOG (Amersham Pharmacia) in KRP buffer was added to the resulting cells at 37° C. to allow treatment for exactly 10 minutes.
# [5] = test system: KKAy mice; test: Fasting blood glucose in KKAy mice (amodiaquine); type: in vivo, mouse; settings: 18 mg/kg oral daily for 6 weeks, control 132.4 mg/dl
# Method: (§3) 5-week-old KKAy purchased from Clea Japan was preliminarily raised for one week and then divided into two groups (5 individuals per group). The first group was administered PBS and set as a negative control, and the second group was orally administered amodiaquine at a concentration of 18 mg/kg daily for 6 weeks. […] For measurement of the blood glucose concentration, an intraperitoneal glucose tolerance test (IPGTT) was used.
# [6] = test system: KKAy mice; test: Intraperitoneal glucose tolerance test (IPGTT) in KKAy mice; type: in vivo, mouse; settings: 18 mg/kg oral daily for 6 weeks, 2 g/kg glucose i.p., control 293.2 mg/dl
# Method: as §3
# [7] = test system: KKAy mice; test: Glycated hemoglobin (HbA1C) in KKAy mice (amodiaquine); type: in vivo, mouse; settings: 18 mg/kg oral daily for 6 weeks, FIG. 4
# Method: As in Example 3, the first group of experimental animals was administered PBS and set as a control, and the second group was orally administered amodiaquine at a concentration of 18 mg/kg using a 1 ml syringe daily for 6 weeks.
# [8] = test system: high fat-induced obesity mice; test: Body weight of high fat-induced obesity mice; type: in vivo, mouse; settings: amodiaquine 20 mg/kg
# Method: To measure a decrease in body weight of mice by amodiaquine, 7-week-old male C57BL/6 mice (Charles River Laboratories, Tokyo, Japan) were purchased and raised under certain conditions (temperature: 22±2° C., relative humidity: 55±10%, and light/dark cycle: 12 hours). The mice were grouped into 7 individuals per group, freely fed water and diets in a cage, and then acclimated for 1 week before an experiment.
# An average body weight was calculated by dividing the sum of weights of 7 mice per group by the number of mice.
# [9] = test system: high fat-induced obesity mice; test: Heat production, 4° C. cold test in high fat-induced obesity mice; type: in vivo, mouse; settings: HFD 14 weeks, up to 6 hours at 4° C.; FIG. 6
# Method: To measure the heat production capability of mice fed a high fat diet for 14 weeks among the experimental animals designed in Example 5, a 4° C. cold test was performed (Spiegelman B. M. et al., Cell 92: 829-839, 1998). Hereinafter, the measurement method will be described in detail. A body temperature of mice in the high fat-induced obesity mouse group was measured before being exposed to 4° C., and recorded as an experiment start measurement temperature, and then the mice were exposed in a 4° C. room for up to 6 hours, followed by measurement of body temperature every hour. The body temperature was measured using a rectal thermometer for a mouse (Testo 925, Germany). A heat production measurement value indicated a temperature measured every hour.
# [10] = test system: high fat-induced obesity mice; test: Oral glucose tolerance test (OGTT) in high fat-induced obesity mice; type: in vivo, mouse; settings: HFD mice, 2 g/kg glucose oral; HFD control 180.5 mg/dl; FIG. 7A
# Method: After fasting for 16 hours, 2 g/kg of glucose was orally administered to each of the control and experimental group animals, and a blood glucose concentration was measured every 30 minutes for 2 hours. For measurement of the blood glucose concentration, an oral glucose tolerance test (OGTT) was used.
# [11] = test system: high fat-induced obesity mice; test: Fatty liver histology (hematoxylin & eosin) in high fat-induced obesity mice; type: in vivo, mouse; settings: HFD mice, 14 weeks and 22 weeks; FIGS. 8A and 8B
# Excerpt: Among the experimental animals designed in Example 5, mice in the high fat-induced obesity mouse group fed a high fat diet for 14 weeks with drug administration and high fat-induced obesity mice fed a high fat diet for 7 weeks with drug administration after obesity was induced by a high fat diet for 15 weeks were sacrificed by cervical spine dislocation, fixed on a dissection stand, and subjected to abdominal dissection with a scalpel to extract the liver. The extracted liver tissue was fixed in a 10% formalin solution to prevent contractile deformation. After 24 hours, the fixed tissue was washed with running water, and then general tissue dehydration, clearing, and penetration were performed thereon using an automatic tissue processor (6460B, Sakura, Japan) for 14 hours, and manufacture of paraffin blocks and cooling were performed using an automated embedding device (Tissue-Tex, Japan). The manufactured paraffin blocks were continuously sliced to a thickness of 4 m to 5 m in a vertical direction of the tissue using a rotary microtome 2040 (Japan), and attached to slides after processing using a floating hot water tank and a slide warming table. […]
# [12] = test system: ACOX, CPT-1, and mCAD genes; test: Expression of PPAR-α target genes in liver, muscle and adipose tissues (real-time PCR); type: in vivo, mouse; settings: muscle, adipose tissues, HFD 14 weeks, FIGS. 9A-9C
# Excerpt: Among the experimental animals designed in Example 5, mice of the high fat-induced obesity mouse groups fed a high fat diet for 14 weeks were sacrificed by cervical spine dislocation, fixed on a dissection stand, and then subjected to dissection with a scalpel to extract liver, muscle, and adipose tissues, and primer base sequences of (β-actin, ACOX, CPT-1, and mCAD are as follows:
# After each tissue was disrupted using a grinding instrument, RNA was extracted using TRIzol, and cDNA was synthesized using reverse transcription polymerase chain reaction (RT PCR). […] The ACOX, CPT-1, and mCAD genes were calibrated with β-actin, thereby obtaining resultant values.
Structure (SMILES),PPAR-γ activity (luciferase expression) [1],blood glucose concentration after 2 hours vs fasting blood glucose (IPITT) [2],PPAR-α activity (luciferase expression) [3],glucose uptake [4],fasting blood glucose concentration [5],blood glucose concentration 2 hours after glucose loading (IPGTT) [6],glycated hemoglobin production as compared to control mice [7],"body weight vs high fat-induced obesity mice ([8]; HFD with substance administration for 14 weeks, FIG. 5A)","body weight vs high fat-induced obesity mice ([8]; substance administration for 7 weeks after obesity induced by HFD for 15 weeks, rosiglitazone 50 mg/kg, FIG. 5C)",body temperature on exposure to 4° C. (heat production) [9],blood glucose concentration 2 hours after glucose loading (OGTT) [10],time of lowest blood glucose level after insulin (IPITT) [2],"liver appearance (fat accumulation, H&E) [11]","increase in expression amounts of the ACOX, CPT-1, and mCAD genes as compared to the control [12]"
"Cc1cccc(Nc2cc(Cl)nc(SCC(=O)O)n2)c1C [WY-14,643]",did not exhibit PPAR-γ activity,maintained at a lower level than the fasting blood glucose concentration,–,–,–,–,–,–,–,–,–,–,–,–
CCN(CC)Cc1cc(Nc2ccnc3cc(Cl)ccc23)ccc1O [amodiaquine],higher PPAR-γ activity in a concentration-dependent manner than that of the positive control treated with rosiglitazone,maintained at a lower level than the fasting blood glucose concentration,high PPAR-α activity in a concentration-dependent manner,further increased as compared to that in the group treated with rosiglitazone,100.2 mg/dL,207 mg/dL,approximately 69%,significantly lower than that of the high fat-induced obesity mice,significant decrease in body weight,smaller decrease in body temperature than that of the high fat-induced obesity mice,139.1 mg/dL,30 min,almost the same appearance as that of normal mice,≥ 215 fold
CN(CCOc1ccc(CC2SC(=O)NC2=O)cc1)c1ccccn1 (centres unmarked) [rosiglitazone],–,–,–,–,–,–,–,–,–,–,–,60 min,–,–
